Measured values as given in patent publication US7396837B2, “Antitumoral analogs of lamellarins” (Pharma Mar, S.A.U., priority 2002, dated 2008).

Columns and labels:
Type in all cases: cell-based
[1] = test system: PANC-1; experiment: SRB colorimetric cell growth inhibition assay, PANC-1; conditions: Homo sapiens, PANC-1, PANC-1
In short: (§1)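 Tested samples remained on human cancer cell cultures throughout the incubation; viable biomass was then stained with SRB and read colorimetrically.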

[2] = test system: LoVo-Dox; experiment: SRB colorimetric cell growth inhibition assay, LoVo-Dox (MDR); conditions: Homo sapiens, LOVO-DOX
In short: as §1

[3] = test system: HT-29; experiment: SRB colorimetric cell growth inhibition assay, HT-29; conditions: Homo sapiens, HT-29, HT-29
In short: as §1

[4] = test system: H-MEC-1; experiment: SRB colorimetric cell growth inhibition assay, H-MEC-1; conditions: Homo sapiens, HMEC-1, H-MEC-1
In short: (§2)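 Growth and viability quantified by sulforhodamine B staining in 96-well microplates. Triplicate wells give mean ± SD; derived endpoints are GI, TGI (cytostatic) and LC (cytotoxic).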

[5] = as above; conditions: human, H-MEC-1 cells, H-MEC-1; LC=cell killing (cytotoxic effect); read-out: LC50 H-MEC-1
In short: as §2

[6] = test system: A-549; experiment: SRB colorimetric cell growth inhibition assay, A-549; conditions: Homo sapiens, A549, A-549
In short: as §1

[7] = test system: DU-145; experiment: SRB colorimetric cell growth inhibition assay, DU-145; conditions: Homo sapiens, DU-145, DU-145
In short: as §1

[8] = test system: SK-MEL-28; experiment: SRB colorimetric cell growth inhibition assay, SK-MEL-28; conditions: Homo sapiens, SK-MEL-28, MEL-28
In short: as §1

[9] = test system: IGROV; experiment: SRB colorimetric cell growth inhibition assay, IGROV; conditions: Homo sapiens, IGROV
In short: as §1

[10] = test system: SKOV-3; experiment: SRB colorimetric cell growth inhibition assay, SKOV-3; conditions: Homo sapiens
In short: as §2

[11] = test system: IGROV-ET; experiment: SRB colorimetric cell growth inhibition assay, IGROV-ET (ET-743 resistant); conditions: Homo sapiens, IGROV-ET
In short: as §1

[12] = test system: LNCaP; experiment: SRB colorimetric cell growth inhibition assay, LNCaP; conditions: Homo sapiens, LNCaP, LN-caP
In short: as §1

[13] = test system: K-562; experiment: SRB colorimetric cell growth inhibition assay, K-562; conditions: Homo sapiens, K562, K-562
In short: as §1

[14] = test system: LoVo; experiment: SRB colorimetric cell growth inhibition assay, LoVo; conditions: Homo sapiens, LoVo
In short: as §1

[15] = test system: SK-BR-3; experiment: SRB colorimetric cell growth inhibition assay, SK-BR-3; conditions: Homo sapiens, SK-BR-3, SK-BR-3
In short: as §1

## COc1cc2c(cc1OC)-c1c(-c3ccc(OS(C)(=O)=O)c(OC)c3)c3c4cc(OC)c(OS(C)(=O)=O)cc4oc(=O)c3n1CC2 [Compound 92]
[1]; GI=growth inhibition, read-out: GI50 PANC-1
  GI50: 5.42 µM
[1]; LC=cell killing (cytotoxic effect), read-out: LC50 PANC-1
  CC50: 14.9 µM
[1]; TGI=total growth inhibition (cytostatic effect), read-out: TGI PANC-1
  IC (TGI): 14.9 µM
[2]; GI=growth inhibition, read-out: GI50 LOVO-DOX
  GI50: 2.14 µM
[2]; LC=cell killing (cytotoxic effect), read-out: LC50 LOVO-DOX
  CC50: 14.9 µM
[2]; TGI=total growth inhibition (cytostatic effect), read-out: TGI LOVO-DOX
  IC (TGI): 5.96 µM
[3]; GI=growth inhibition, read-out: GI50 HT-29
  GI50: 14.9 µM
[3]; LC=cell killing (cytotoxic effect), read-out: LC50 HT-29
  CC50: 14.9 µM
[3]; TGI=total growth inhibition (cytostatic effect), read-out: TGI HT-29
  IC (TGI): 14.9 µM
[4]; GI=growth inhibition
  GI50: 14.2 µM
[4]; TGI=total growth inhibition (cytostatic effect), read-out: TGI H-MEC-1
  IC (TGI): 14.9 µM
[5]
  CC50: 14.9 µM
[6]; GI=growth inhibition, read-out: GI50 A-549
  GI50: 14.9 µM
[6]; LC=cell killing (cytotoxic effect), read-out: LC50 A-549
  CC50: 14.9 µM
[6]; TGI=total growth inhibition (cytostatic effect), read-out: TGI A-549
  IC (TGI): 14.9 µM
[7]; GI=growth inhibition, read-out: GI50 DU-145
  GI50: 14.9 µM
[7]; LC=cell killing (cytotoxic effect), read-out: LC50 DU-145
  CC50: 14.9 µM
[7]; TGI=total growth inhibition (cytostatic effect), read-out: TGI DU-145
  IC (TGI): 14.9 µM
[8]; GI=growth inhibition, read-out: GI50 MEL-28
  GI50: 4.75 µM
[8]; LC=cell killing (cytotoxic effect), read-out: LC50 MEL-28
  CC50: 14.9 µM
[8]; TGI=total growth inhibition (cytostatic effect), read-out: TGI MEL-28
  IC (TGI): 10.1 µM
[9]; GI=growth inhibition, read-out: GI50 IGROV
  GI50: 3.13 µM
[9]; LC=cell killing (cytotoxic effect), read-out: LC50 IGROV
  CC50: 14.1 µM
[9]; TGI=total growth inhibition (cytostatic effect), read-out: TGI IGROV
  IC (TGI): 6.64 µM
[10]; SK-OV-3, SKOV-3, GI=growth inhibition, read-out: GI50 SKOV-3
  GI50: 7.61 µM
[10]; SK-OV-3, SKOV-3, LC=cell killing (cytotoxic effect), read-out: LC50 SKOV-3
  CC50: 14.9 µM
[10]; SK-OV-3, SKOV-3, TGI=total growth inhibition (cytostatic effect), read-out: TGI SKOV-3
  IC (TGI): 14.9 µM
[11]; GI=growth inhibition, read-out: GI50 IGROV-ET
  GI50: 6.85 µM
[11]; LC=cell killing (cytotoxic effect), read-out: LC50 IGROV-ET
  CC50: 14.9 µM
[11]; TGI=total growth inhibition (cytostatic effect), read-out: TGI IGROV-ET
  IC (TGI): 14.9 µM
[12]; GI=growth inhibition, read-out: GI50 LN-caP
  GI50: 0.167 µM
[12]; LC=cell killing (cytotoxic effect), read-out: LC50 LN-caP
  CC50: 5.09 µM
[12]; TGI=total growth inhibition (cytostatic effect), read-out: TGI LN-caP
  IC (TGI): 0.71 µM
[13]; GI=growth inhibition, read-out: GI50 K-562
  GI50: 2.23 µM
[13]; LC=cell killing (cytotoxic effect), read-out: LC50 K-562
  CC50: 14.9 µM
[13]; TGI=total growth inhibition (cytostatic effect), read-out: TGI K-562
  IC (TGI): 13.8 µM
[14]; GI=growth inhibition, read-out: GI50 LOVO
  GI50: 7.52 µM
[14]; LC=cell killing (cytotoxic effect), read-out: LC50 LOVO
  CC50: 14.9 µM
[14]; TGI=total growth inhibition (cytostatic effect), read-out: TGI LOVO
  IC (TGI): 14.9 µM
[15]; GI=growth inhibition, read-out: GI50 SK-BR-3
  GI50: 4.35 µM
[15]; LC=cell killing (cytotoxic effect), read-out: LC50 SK-BR-3
  CC50: 14.9 µM
[15]; TGI=total growth inhibition (cytostatic effect), read-out: TGI SK-BR-3
  IC (TGI): 11.6 µM
